{"source": "patent US20060094691A1", "about": "“Inclusion complexes of rosiglitazone” (priority 2002, published 2006)", "test": "Intrinsic Dissolution Rate (IDR) at pH 6.8 of the cyclodextrin complexes (Sotax intrinsic dissolution assembly, USP<1087>)", "assay_type": "physicochemical", "conditions": "100 rpm", "description": "Data: Intrinsic Dissolution Rate (IDR) at pH 6.8 of the Cyclodextrin Complexes\nThe intrinsic dissolution rate was measured with a Sotax intrinsic dissolution assembly according to the procedure described in USP<1087>. The 8 mm diameter disc was formed from approximately 150 mg of cyclodextrin complex and compressed at a force of 5 tons for 30 seconds using a benchtop hydraulic press. The dissolution media was 1000 mL of water containing 31.6 mL of 1 M hydrochloric acid solution and 2.0 g of sodium chloride, which was adjusted to pH 6.8 with Tris/Acetate buffer, the dissolution volume was 900 mL at 37° C. and the rotating speed was 100 rpm. Detection was performed by flow through UV sampling every 2 minutes for 1 hour at 245 nm with a 1 cm path length.", "data": [{"compound": "CN(CCOc1ccc(CC2SC(=O)NC2=O)cc1)c1ccccn1.O=C(O)/C=C\\C(=O)O", "note": "(centres unmarked) [Maleate salt of Compound 1, 5-[4-[2-(N-methyl-N-(2-pyridyl)amino)ethoxy]benzyl]thiazolidine-2,4-dione, maleate salt]", "values": [{"measurement": "IDR relative to the Maleate salt of Compound 1", "setting": "pH 6.8, 37° C., ratio to the maleate salt", "value": 1}, {"measurement": "IDR", "setting": "pH 6.8 dissolution media, 900 mL, 37° C., 8 mm disc, UV 245 nm", "value": 0.057, "unit": "mg/min/cm^2"}]}]}
